Data from PMC8845285, “Serotoninergic receptor ligands improve Tamoxifen effectiveness on breast cancer cells” (BMC Cancer, 2022).
Read-outs that look alike come from different tables or passages of the source.

Assays:
Format in all cases: cell-based, human
MCF7-R cells = assay: Tamoxifen-resistant MCF7-R cell viability, sulforhodamine B assay; conditions: SER 20 μM; for effect on MCF7-R cells if used alone (viability): E2 100 nM, 72 h; for effect on viability of MCF7-R cells in co-treatment with Tamoxifen: Tamoxifen 5 μM, E2, 72 h
Description: (§1) Cells were fixed with 50% trichloroacetic acid for at least 2 h at 4 °C, washed with distilled and de-ionized water, air-dryed and stained 30 min with 0.4% sulforhodamine B in 1% acetic acid. Unbound dye was removed and 10 mM tris-HCl solution (pH 7.5) was added to dissolve the protein-bound dye. Cell survival was assessed by optical density determination at 510 nm using a microplate reader.
MCF7 cells were cultured for 4 months in phenol-red free medium supplemented with 10% (C/S) FBS and continuously exposed to Tamoxifen (1 μM). […] To further validate the degree of drug resistance, the expression levels of ABCC1, ABCG1 and ABCG2 – members of ABC transporter family known as involved in multi-drug resistance – were evaluated by Quantitative Real-Time PCR (qPCR; see below) upon cell treatment with 5 μM Tamoxifen for 72 h.
Fig. 9 Effect of SER79 and SER68 on Tamoxifen-resistant (MCF7-R) cells. a Estrogen starved MCF7-R were treated with SER79 (20 μM, 5 μM) or SER68 (20 μM) in presence of E2 (100 nM). b Estrogen-starved MCF7-R were treated with Tamoxifen (5 μM) in presence of E2 and SER79 (20 μM) or SER68 (20 μM). a,b As positive control, the cells were treated with E2 alone, in absence or in presence of SER (dotted line). After 72 h, cell viability was assessed by sulforhodamine B assay (see Methods). The results were reported as percentage of viable cells compared to positive control, considered as maximum viability (100%). c mRNA levels of CTGF were determined by qPCR (see Methods and Table 1) in MCF7-R cells upon treatment with SER68 (20 μM). Data were normalized on Ribosomal Protein S23 (Rps23) gene as internal standard and reported as CTGF mRNA levels in MCF7-R. a-c Graphs represent the mean ± SD of at least three independent triplicate experiments. * denotes statistically significant values compared with (b) positive control or (c) MCF7 cells (*adjp<0.05; **adjp<0.001). # denotes statistically significant values compared with untreated MCF7-R (#pval<0.05) […]
Figure S3. Establishment of MCF7 Tamoxifen re sista n t(M C F7-R) cells. MCF7 cells were cultured with Tamoxifen (1µM), in absence of E2, for 4 months (M C F7-R). (a-b) MCF7 and MCF7-R cells were treated with in c re a s in gconcentration of Tamoxifen […]
As positive control, cells were treated with E2 alone. Cell viability was measured by sulforhodamine B assay (se e Methods). The re su ltswere re p o rte das percentage of viable cells compared to untreated cells, considered as maximum viability (100%). […]
(a ) * denotes statistically significant values compared with untreated cells […]
(1 picture or pasted object on this page, not shown here)

SKBR3 cells = assay: SKBR3 cell viability, sulforhodamine B assay; conditions: for IC50: Homo sapiens, SK-BR-3, 72 h treatment
Description: (§2) MCF7 (ER^+, PR^+, HER2^−), SKBR3 (ER^−, PR^+, HER2^+) and MDA-MB231 (ER^−, PR^−, HER2^−) human BC cells and MCF10A non-cancer breast epithelial cells were available in our laboratory. MCF7, SKBR3 and MDA-MB231 cells were cultured in DMEM, supplemented with 10% FBS, 2 mM glutamine, 100 units/ml penicillin and 100 units/ml streptomycin. MCF10A cells were cultured in MEBM, supplemented with 0.4% BPE, 0.1% hEGF, 0.1%, Insulin, 0.1% Hydrocortisone and 0.1% GA-1000. […] Treatment with SER were carried out in culture conditions. Treatment with Tamoxifen and/or SER were carried out upon 48 h estrogen starvation in phenol-red free medium supplemented with 10% Charcoal Stripped (C/S) FBS, 2 mM glutamine, 100 units/ml penicillin and 100 units/ml streptomycin.
as §1
Fig. 3 Effect of SER on SKBR3 cell viability. […] Cell viability was assessed, after 72 h, by sulforhodamine B assay (see Methods).

MCF7 cells = assay: MCF7 cell viability, sulforhodamine B assay; conditions: for IC50: Homo sapiens, MCF7
Description: as §2, §1
After 48 and 72 h, cell viability was assessed by sulforhodamine B assay (see Methods).

MDA-MB231 cells = assay: MDA-MB231 cell viability, sulforhodamine B assay; conditions: for inhibition of MDA-MB231 cell growth: 100 μM, 72 h; for IC50: Homo sapiens, MDA-MB-231, 72 h treatment
Description: as §2, §1
Cell viability was assessed, after 72 h, by sulforhodamine B assay (see Methods).

[1] = 48 h treatment, read-out: IC50 MCF7 48h
[2] = 72 h treatment, read-out: IC50 MCF7

In the case of `O=C1C2C3C=CC(C3)C2C(=O)N1OCCN1CCN(c2ccc(Cl)c(Cl)c2)CC1` (stereo not shown) [SER68], the “effect on MCF7-R cells if used alone (viability)” value (MCF7-R cells) is reported as “neither”, the “effect on viability of MCF7-R cells in co-treatment with Tamoxifen” value (MCF7-R cells) is reported as “significantly reduced viability” and the IC50 (SKBR3 cells) is reported as 260 ± 94.9 µM. For the same compound, the IC50 (MCF7 cells; [1]) was 131 ± 13.8 µM, the IC50 (MCF7 cells; [2]) was 54.2 ± 10.2 µM and the “inhibition of MDA-MB231 cell growth” value (MDA-MB231 cells) was “able to inhibit”. For the same compound, the IC50 (MDA-MB231 cells) was 171 ± 37.3 µM.
`N#CN=C(NCCCN1CCN(C(c2ccc(F)cc2)c2ccc(F)cc2)CC1)c1ccccn1` [SER79] was tested, and the “effect on MCF7-R cells if used alone (viability)” value (MCF7-R cells) was “neither”, the “effect on viability of MCF7-R cells in co-treatment with Tamoxifen” value (MCF7-R cells) was “No significant effect” and the “reduction of SKBR3 cell viability” value (SKBR3 cells; 50 μM, 72 h) was “≈ 50%”. The IC50 (SKBR3 cells) was 53.6 ± 10.4 µM, the “reduction of MCF7 cell viability” value (MCF7 cells; 50 μM, 72 h) was “≈ 70%” and the IC50 (MCF7 cells; [1]) was 85.1 ± 13.4 µM. The IC50 (MCF7 cells; [2]) was 24.1 µM, the “inhibition of MDA-MB231 cell growth” value (MDA-MB231 cells) was “able to inhibit” and the IC50 (MDA-MB231 cells) was 117 µM.
